Results as given in patent publication US11401271B2, “Fused heterocyclic compound, pyrazole-ring-containing fused heterocyclic compound, agricultural composition containing thereof, and method of using the composition” (SOUTH CHINA AGRICULTURAL UNIVERSITY, priority 2017, dated 2022).
Where two headings read alike, the source gives them in different places.

Legend:
Experiment in all cases: whole plant or invertebrate
Format in all cases: in vivo
Aphis craccivora = conditions: for mortality at 500 ppm: Aphis craccivora, 24 h, read-out: Aphis craccivora Mortality (%) 500 ppm; for Aphis craccivora Mortality (%) / Aphis craccivora Mortality (%) 500 ppm: 500 ppm, wingless adults; for Aphis craccivora Mortality (%): immersion 5 seconds, counted after 24 hours; for Aphis craccivora Mortality (%) 500 ppm: impregnation method, 24 hours
Method: (3) Insecticidal Activity on Aphid Adults.
Aphid is a homoptera pest with a piercing-sucking mouthpart and is a common vegetable pest. Aphis craccivora were taken as test objects and tested by using an impregnation method.
Operation process: Samples were weighed accurately, and respectively added with 200 μL of dimethyl sulfoxide to prepare 10 g/L mother liquor which was diluted into a concentration of 500 ppm with an aqueous solution containing 0.05% of Tween-80 during the test. After the wingless Aphis craccivora adults stably sucked on bean sprouts, the wingless Aphis craccivora adults together with the bean sprouts were immersed into a liquid medicine with a concentration of 500 ppm, taken out after 5 seconds, air-dried naturally, transferred into a clean vessel, and fed at a constant temperature of 23° C. Each concentration was repeated 3 times, and an aqueous solution containing 0.05% of Tween-80 was used as a control group. After being treated for 24 hours, a number of dead Aphis craccivora was counted, and a mortality (%) was calculated according to a formula that mortality (%)=(number of live Aphis craccivora in the control group−number of treated live Aphis craccivora)/number of live Aphis craccivora in the control group*100%.

Plutella xylostella = conditions: for mortality at 500 ppm: Plutella xylostella, read-out: Plutella xylostella Mortality (%) 500 ppm; for Plutella xylostella Mortality (%) / Plutella xylostella Mortality (%) 500 ppm: 500 ppm, 2nd-instar larvae, leaf immersion feeding
Method: (1) Insecticidal Activity on 2nd-Instar Larvae of Plutella xylostella.
Plutella xylostella (L.) is a lepidoptera pest with a chewing mouthpart and is a common vegetable pest. The 2nd-instar larvae of Plutella xylostella were used as test objects and tested by using a leaf immersion feeding method.
(§1) Operation process: Samples were weighed accurately, and respectively added with 200 μL of dimethyl sulfoxide to prepare 10 g/L mother liquor which was diluted into a concentration of 500 ppm with an aqueous solution containing 0.05% of Tween-80 during the test. A hole puncher with a diameter of 1.0 cm was used to make cleaned cabbage leaves into leaf discs. The leaf discs were immersed in a liquid medicine, taken out after 5 seconds, air-dried naturally, and transferred into a clean vessel. About 35 2nd-instar larvae of Plutella xylostella were put into the vessel and fed at a constant temperature of 28° C. Each concentration was repeated 3 times, and an aqueous solution containing 0.05% of Tween-80 was used as a control group. After being treated for 24 hours, a number of dead Plutella xylostella was counted, and a mortality (%) was calculated according to a formula that mortality (%)=(number of live larvae in the control group−number of treated live larvae)/number of live larvae in the control group*100%.

Solenopsis invicta = conditions: water test tube poison-feeding; for mortality at 100 ppm: Solenopsis invicta; for Solenopsis invicta Mortality (%) 24 h / Solenopsis invicta Mortality (%) 72 h / Solenopsis invicta Mortality (%) 100 ppm 24 h / Solenopsis invicta Mortality (%) 100 ppm 72 h: 100 ppm
Method: (4) Insecticidal Activity on Solenopsis invicta.
As a hymenoptera pests and a social insect, Solenopsis invicta is one of the most destructive invasive organisms. Solenopsis invicta were used as test objects and tested by using a water test tube poison-feeding method.
Operation process: Samples were weighed accurately, and respectively added with 200 μL of dimethyl sulfoxide to prepare 10 g/L mother liquor which was diluted into a concentration of 100 ppm with a mixed aqueous solution containing 0.05% of Tween-80 and 5% of honey during the test. […] The raising test tube was placed in a raising box horizontally, and a small amount of ham sausages were added to the raising test tube as food to raise the Solenopsis invicta at a constant temperature of 25° C. After being treated for 24 hours and 72 hours, a number of live Solenopsis invicta and a number of dead Solenopsis invicta were counted, and a mortality (%) was calculated according to a formula that mortality (%)=(number of live Solenopsis invicta in the control group−number of treated live Solenopsis invicta)/number of live Solenopsis invicta in the control group*100%.

Spodoptera exigua = conditions: for mortality at 500 ppm: Spodoptera exigua, 24 h, read-out: Spodoptera exigua Mortality (%) 500 ppm; for Spodoptera exigua Mortality (%) / Spodoptera exigua Mortality (%) 500 ppm: 500 ppm, 2nd-instar larvae, leaf immersion feeding; for Spodoptera exigua Mortality (%) 500 ppm: 24 hours
Method: (2) Insecticidal Activity on 2nd-Instar Larvae of Spodoptera exigua.
Spodoptera exigua is a lepidoptera pest with a chewing mouthpart and is a common vegetable pest. The 2nd-instar larvae of Spodoptera exigua were used as test objects and tested by using a leaf immersion feeding method.
as §1, with “μL,” for “μL”, “2nd -instar” for “2nd-instar”, “Spodoptera exigua” for “Plutella xylostella”, “group −number” for “group−number”, “group * 100%.” for “group*100%.”

[1] = 24 h, read-out: Solenopsis invicta Mortality (%) 100 ppm 24 h, 100 ppm, 24 h
[2] = 72 h, read-out: Solenopsis invicta Mortality (%) 100 ppm 72 h, 100 ppm, 72 h

Row | SMILES | mortality at 500 ppm (Aphis craccivora) | mortality at 500 ppm (Plutella xylostella) | mortality at 100 ppm (Solenopsis invicta; [1]) | mortality at 100 ppm (Solenopsis invicta; [2]) | mortality at 500 ppm (Spodoptera exigua) | Aphis craccivora Mortality (%) (Aphis craccivora) | Plutella xylostella Mortality (%) (Plutella xylostella) | Solenopsis invicta Mortality (%) 24 h (Solenopsis invicta; 24 h) | Solenopsis invicta Mortality (%) 72 h (Solenopsis invicta; 72 h) | Spodoptera exigua Mortality (%) (Spodoptera exigua) | other results
1 | COC(=O)CC1(C(=O)OC)c2cc(C(F)(F)F)cc(Cl)c2-n2nc(C#N)c([S+]([O-])C(F)(F)F)c2N1C (stereo not drawn) [Compound C39] | 98% | 90% | 24% | 87% | 100% | – | – | – | – | – | –
2 | COC(=O)C1(CC(N)=O)Nc2c([S+]([O-])C(F)(F)F)c(C#N)nn2-c2c(Cl)cc(C(F)(F)F)cc21 (stereo not drawn) [d-20] | – | – | – | – | – | 100% | 100% | 14% | 100% | 100% | –
3 | C=CC1Nc2c(Br)c(C#N)nn2-c2c(Cl)cc(C(F)(F)F)cc21 (stereo not drawn) [Compound C8] | 95% | 91% | 36% | 92% | 85% | – | – | – | – | – | –
4 | N#Cc1nn2c(c1[S+]([O-])C(F)(F)F)NC(C#N)(C#N)c1cc(C(F)(F)F)cnc1-2 (stereo not drawn) [a-52] | – | – | – | – | – | – | – | – | – | – | Aphis craccivora Mortality (%) 500 ppm (Aphis craccivora): 91%; Plutella xylostella Mortality (%) 500 ppm (Plutella xylostella): 100%; Solenopsis invicta Mortality (%) 100 ppm 24 h (Solenopsis invicta; 24 h): 20%; Solenopsis invicta Mortality (%) 100 ppm 72 h (Solenopsis invicta; 72 h): 89%; Spodoptera exigua Mortality (%) 500 ppm (Spodoptera exigua): 89%
5 | CC1(C)Nc2c(Br)c(C#N)nn2-c2ccccc21 [Compound A2] | 100% | 97% | 19% | 93% | 100% | – | – | – | – | – | –
6 | COC(=O)C1(CC(C)=O)Nc2c([S+]([O-])C(F)(F)F)c(C#N)nn2-c2c(Cl)cc(C(F)(F)F)cc21 (stereo not drawn) [d-33] | – | – | – | – | – | 100% | 100% | 26% | 100% | 99% | –
7 | COC(=O)CC1(C(=O)OC)Nc2c([S+]([O-])C(F)(F)F)c(C#N)nn2-c2cc(C(F)(F)F)cc(Cl)c21 (racemic) [c-8] | – | – | – | – | – | 100% | 100% | 20% | 100% | 100% | –
8 | N#Cc1nn2c(c1[S+]([O-])C(F)(F)F)NC(Br)(CC(=O)C(F)(F)F)c1cc(C(F)(F)F)cc(Cl)c1-2 (stereo not drawn) [d-63] | – | – | – | – | – | 100% | 100% | 20% | 90% | 95% | –
9 | CC(=O)C1(CC(=O)C(F)(F)F)Nc2c([S+]([O-])C(F)(F)F)c(C#N)nn2-c2c(Cl)cc(C(F)(F)F)cc21 (stereo not drawn) [d-49] | – | – | – | – | – | 100% | 100% | 29% | 100% | 100% | –
10 | N#Cc1nn2c(c1[S+]([O-])C(F)(F)F)NC(CC(=O)C(F)(F)F)(C(F)(F)F)c1cc(C(F)(F)F)cnc1-2 (stereo not drawn) [a-63] | – | – | – | – | – | – | – | – | – | – | Aphis craccivora Mortality (%) 500 ppm (Aphis craccivora): 100%; Plutella xylostella Mortality (%) 500 ppm (Plutella xylostella): 100%; Solenopsis invicta Mortality (%) 100 ppm 24 h (Solenopsis invicta; 24 h): 24%; Solenopsis invicta Mortality (%) 100 ppm 72 h (Solenopsis invicta; 72 h): 100%; Spodoptera exigua Mortality (%) 500 ppm (Spodoptera exigua): 100%
11 | COC(=O)CC1(C(=O)OC)Nc2c([S+]([O-])C(F)(F)F)c(CN)nn2-c2c(Cl)cc(C(F)(F)F)cc21 (stereo not drawn) [d-9] | – | – | – | – | – | 96% | 82% | 21% | 77% | 79% | –
12 | CC(=O)c1nn2c(c1[S+](C)[O-])NC(CBr)(CC#N)c1cc(C(F)(F)F)cc(Cl)c1-2 (stereo not drawn) [Compound C41] | 100% | 89% | 19% | 90% | 94% | – | – | – | – | – | –
13 | CC(=O)c1nn2c(c1[S+](C)[O-])NC(CC(N)=O)(C(N)=O)c1cc(C(F)(F)F)cc(Cl)c1-2 (stereo not drawn) [Compound C49] | 90% | 87% | 20% | 81% | 89% | – | – | – | – | – | –
14 | [O-][S+](c1c(C(F)(F)F)nn2c1NC(Br)c1c(Cl)cncc1-2)C(F)(F)F (stereo not drawn) [b-104] | – | – | – | – | – | 100% | 96% | 20% | 96% | 96% | –
15 | CC(=O)C1(CC(=O)C(F)(F)F)Nc2c([S+]([O-])C(F)(F)F)c(C#N)nn2-c2ncc(C(F)(F)F)cc21 (stereo not drawn) [a-37] | – | – | – | – | – | – | – | – | – | – | Aphis craccivora Mortality (%) 500 ppm (Aphis craccivora): 100%; Plutella xylostella Mortality (%) 500 ppm (Plutella xylostella): 100%; Solenopsis invicta Mortality (%) 100 ppm 24 h (Solenopsis invicta; 24 h): 15%; Solenopsis invicta Mortality (%) 100 ppm 72 h (Solenopsis invicta; 72 h): 99%; Spodoptera exigua Mortality (%) 500 ppm (Spodoptera exigua): 96%
16 | N#Cc1nn2c(c1[S+]([O-])C(F)(F)F)NC(CC(F)(F)F)(C(F)(F)F)c1cc(C(F)(F)F)cc(Cl)c1-2 (stereo not drawn) [d-69] | – | – | – | – | – | 100% | 90% | 44% | 100% | 86% | –
17 | N#Cc1nn2c(c1[S+]([O-])C(F)(F)F)NC(C#N)(CC(=O)C(F)(F)F)c1cc(C(F)(F)F)cnc1-2 (stereo not drawn) [a-57] | – | – | – | – | – | – | – | – | – | – | Aphis craccivora Mortality (%) 500 ppm (Aphis craccivora): 100%; Plutella xylostella Mortality (%) 500 ppm (Plutella xylostella): 100%; Solenopsis invicta Mortality (%) 100 ppm 24 h (Solenopsis invicta; 24 h): 24%; Solenopsis invicta Mortality (%) 100 ppm 72 h (Solenopsis invicta; 72 h): 100%; Spodoptera exigua Mortality (%) 500 ppm (Spodoptera exigua): 100%
18 | N#Cc1nn2c(c1-c1ccccc1C(F)(F)F)NC(CCl)(C(O)CO)c1cc(C(F)(F)F)cc(Cl)c1-2 (stereo not drawn) [Compound C53] | 90% | 78% | 28% | 97% | 89% | – | – | – | – | – | –
19 | COC(=O)CC1(C(=O)OC)Nc2c([S+]([O-])C(F)(F)F)c(C#N)nn2-c2cc(C(F)(F)F)c(Cl)cc21 (stereo not drawn) [e-19] | – | – | – | – | – | 100% | 100% | 31% | 90% | 100% | –
20 | CNC(=O)CC1Nc2c(OC(F)(F)F)c(C#N)nn2-c2cncc(Cl)c21 (stereo not drawn) [b-123] | – | – | – | – | – | 100% | 99% | 24% | 100% | 95% | –
21 | CC(=O)c1nn2c(c1[S+](C)[O-])NC(CO)(CC#N)c1cc(C(F)(F)F)cc(Cl)c1-2 (stereo not drawn) [Compound C27] | 100% | 76% | 27% | 86% | 86% | – | – | – | – | – | –
